In this experiment the target is T1, Solute carrier family 15 member 2 (Homo sapiens, UniProt Q16348).
T1 sequence (Q16348 whole entry): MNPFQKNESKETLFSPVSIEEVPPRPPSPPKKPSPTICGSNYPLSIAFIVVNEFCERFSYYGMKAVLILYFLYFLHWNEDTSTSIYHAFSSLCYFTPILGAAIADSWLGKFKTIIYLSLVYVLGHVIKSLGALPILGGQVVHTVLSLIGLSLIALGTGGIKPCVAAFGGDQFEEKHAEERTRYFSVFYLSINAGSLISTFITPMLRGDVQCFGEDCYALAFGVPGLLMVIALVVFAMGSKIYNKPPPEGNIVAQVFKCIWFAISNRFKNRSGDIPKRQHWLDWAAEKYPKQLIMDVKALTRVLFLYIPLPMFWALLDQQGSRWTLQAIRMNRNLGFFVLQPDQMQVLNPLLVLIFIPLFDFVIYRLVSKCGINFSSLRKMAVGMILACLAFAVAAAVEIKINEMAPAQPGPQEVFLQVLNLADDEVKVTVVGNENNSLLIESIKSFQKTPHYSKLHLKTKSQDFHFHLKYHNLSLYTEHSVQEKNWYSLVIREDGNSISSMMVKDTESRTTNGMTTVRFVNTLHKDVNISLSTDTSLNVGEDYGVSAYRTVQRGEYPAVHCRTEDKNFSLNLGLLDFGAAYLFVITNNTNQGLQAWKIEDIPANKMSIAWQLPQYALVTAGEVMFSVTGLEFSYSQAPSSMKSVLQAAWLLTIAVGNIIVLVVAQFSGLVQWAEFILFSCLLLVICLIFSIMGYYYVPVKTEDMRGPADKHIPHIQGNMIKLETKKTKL
As to the kind of experiment: Substrate uptake by the Peptide Transporter 2 (PEPT2, SLC15A2) as assessed by the fluorescent FLIPR membrane potential dye in HEK-293 JumpIN-SLC15A2 cells (PubChem AID: 1794819). In kind it is functional, cell-based, HEK293.

From ChEMBL document CHEMBL5209584, “Membrane potential based assay for SLC15A2 using HEK-293 SLC15A2 OE cells” (2022) come the findings set out here.

Values joined by “and” are separate entries in the source; they are usually repeats but may differ in a detail not shown here. Equal entries are not always repeated. Square brackets hold non-standard residues; d marks the D form. Peptide text beside a SMILES is read from it. Sar = CNCC(=O)O

`NCCC(=O)N[C@@H](Cc1cnc[nH]1)C(=O)O` [CARNOSINE]: the EC50 stood at 28 µM.
As for `CN(CC(=O)O)C(=O)CN` [GLYCYLSARCOSINE] (H-Gly-[Sar]-OH), the EC50 was 123 µM and 39 µM.

A word on the EC50: it is the midpoint of the concentration-response curve.
